What was measured:
Conditions in all cases: exposure time: 72 h
E28 [1] = patient-derived glioblastoma stem cells of classical subtype; assay: phenotypic distance (Euclidean, principal components) from DMSO controls (arbitrary units); higher = stronger morphological change
E34 [2] = patient-derived glioblastoma stem cells of proneural subtype; assay: as above
FT3469 [3] = normal neural stem cell line; assay: as above
E57 [4] = patient-derived glioblastoma stem cells of mesenchymal subtype; assay: as above
E13 [5] = patient-derived glioblastoma stem cells of classical subtype; assay: as above
E31 [6] = patient-derived glioblastoma stem cells of proneural subtype; assay: as above
E21 [7] = patient-derived glioblastoma stem cells of mesenchymal subtype; assay: as above
E28 [8] = assay: surviving fraction (nuclei count normalised to DMSO); higher = more cells surviving (less toxic)
E34 [9] = assay: as above
FT3469 [10] = assay: as above
E57 [11] = assay: as above
E13 [12] = assay: as above
E31 [13] = assay: as above
E21 [14] = assay: as above
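Throughout, for phenotypic distance (Euclidean, principal components) from DMSO controls: cell Painting imaging in 384-well plates, CellProfiler features reduced to at least 20 principal components, Euclidean distance versus same-plate DMSO vehicle wells (0.1% v/v), median over six images per well.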
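Throughout, for surviving fraction (nuclei count normalised to DMSO): nuclei counted by high-content imaging of Hoechst-stained cells in laminin-coated 384-well plates, relative to 0.1% DMSO vehicle wells, with staurosporine as cell-death control.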

CCn1cc(C(=O)O)c(=O)c2cc(F)c(N3CCNCC3)nc21 [Enoxacin]
Conditions	phenotypic distance	surviving fraction
E13 [5], 4.1 nM	0.646	–
E13 [5], 12.3 nM	0.69	–
E13 [5], 37 nM	0.539	–
E13 [5], 111.1 nM	0.399	–
E13 [5], 333.3 nM	0.457	–
E13 [5], 1000 nM	0.745	–
E13 [5], 3000 nM	0.954	–
E13 [12], 4.1 nM	–	0.98
E13 [12], 12.3 nM	–	1.08
E13 [12], 37 nM	–	0.82
E13 [12], 111.1 nM	–	1.01
E13 [12], 333.3 nM	–	0.975
E13 [12], 1000 nM	–	0.96
E13 [12], 3000 nM	–	1.05
E21 [7], 4.1 nM	0.648	–
E21 [7], 12.3 nM	0.762	–
E21 [7], 37 nM	0.7	–
E21 [7], 111.1 nM	0.554	–
E21 [7], 333.3 nM	0.603	–
E21 [7], 1000 nM	0.823	–
E21 [7], 3000 nM	0.597	–
E21 [14], 4.1 nM	–	0.976
E21 [14], 12.3 nM	–	0.98
E21 [14], 37 nM	–	0.929
E21 [14], 111.1 nM	–	0.973
E21 [14], 333.3 nM	–	0.975
E21 [14], 1000 nM	–	0.987
E21 [14], 3000 nM	–	0.968
E28 [1], 4.1 nM	0.627	–
E28 [1], 12.3 nM	0.793	–
E28 [1], 37 nM	0.478	–
E28 [1], 111.1 nM	0.94	–
E28 [1], 333.3 nM	0.292	–
E28 [1], 1000 nM	0.666	–
E28 [1], 3000 nM	0.546	–
E28 [8], 4.1 nM	–	0.921
E28 [8], 12.3 nM	–	1.01
E28 [8], 37 nM	–	0.969
E28 [8], 111.1 nM	–	1.22
E28 [8], 333.3 nM	–	0.982
E28 [8], 1000 nM	–	0.962
E28 [8], 3000 nM	–	0.83
E31 [6], 4.1 nM	0.556	–
E31 [6], 12.3 nM	0.523	–
E31 [6], 37 nM	0.553	–
E31 [6], 111.1 nM	0.528	–
E31 [6], 333.3 nM	0.401	–
E31 [6], 1000 nM	0.654	–
E31 [6], 3000 nM	0.714	–
E31 [13], 4.1 nM	–	0.836
E31 [13], 12.3 nM	–	1
E31 [13], 37 nM	–	1.09
E31 [13], 111.1 nM	–	0.95
E31 [13], 333.3 nM	–	1.02
E31 [13], 1000 nM	–	1.19
E31 [13], 3000 nM	–	0.881
E34 [2], 4.1 nM	0.518	–
E34 [2], 12.3 nM	0.658	–
E34 [2], 37 nM	0.667	–
E34 [2], 111.1 nM	0.731	–
E34 [2], 333.3 nM	0.276	–
E34 [2], 1000 nM	0.843	–
E34 [2], 3000 nM	1.19	–
E34 [9], 4.1 nM	–	1.01
E34 [9], 12.3 nM	–	1.07
E34 [9], 37 nM	–	1.09
E34 [9], 111.1 nM	–	0.99
E34 [9], 333.3 nM	–	1.06
E34 [9], 1000 nM	–	1.1
E34 [9], 3000 nM	–	0.885
E57 [4], 4.1 nM	0.422	–
E57 [4], 12.3 nM	0.677	–
E57 [4], 37 nM	0.541	–
E57 [4], 111.1 nM	0.821	–
E57 [4], 333.3 nM	0.482	–
E57 [4], 1000 nM	0.537	–
E57 [4], 3000 nM	0.807	–
E57 [11], 4.1 nM	–	1
E57 [11], 12.3 nM	–	1.07
E57 [11], 37 nM	–	1.1
E57 [11], 111.1 nM	–	1.11
E57 [11], 333.3 nM	–	1.06
E57 [11], 1000 nM	–	0.938
E57 [11], 3000 nM	–	0.959
FT3469 [3], 4.1 nM	0.513	–
FT3469 [3], 12.3 nM	0.577	–
FT3469 [3], 37 nM	0.677	–
FT3469 [3], 111.1 nM	0.87	–
FT3469 [3], 333.3 nM	0.641	–
FT3469 [3], 1000 nM	0.47	–
FT3469 [3], 3000 nM	0.868	–
FT3469 [10], 4.1 nM	–	0.928
FT3469 [10], 12.3 nM	–	0.931
FT3469 [10], 37 nM	–	0.867
FT3469 [10], 111.1 nM	–	1.02
FT3469 [10], 333.3 nM	–	1.06
FT3469 [10], 1000 nM	–	0.928
FT3469 [10], 3000 nM	–	0.971

— the supplement of paper PMC13207355
